Experimental data taken from PubChem BioAssay (NCI).
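Following 48 hours of exposure in 96-well plates, responses at five concentrations were used to interpolate endpoints linearly. GI50 is the concentration that inhibits growth by half. TGI: total growth inhibition.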

What was measured:
Assay in all cases: inhibition of tumour cell growth, NCI panel, 48 h
NCI-H460 lung = tested on: NCI-H460 lung
UO-31 renal = tested on: UO-31 renal
CCRF-CEM leukemia = tested on: CCRF-CEM leukemia
OVCAR-4 ovarian = tested on: OVCAR-4 ovarian
SK-MEL-2 melanoma = tested on: SK-MEL-2 melanoma
NCI-H522 lung = tested on: NCI-H522 lung
LOX IMVI melanoma = tested on: LOX IMVI melanoma
COLO 205 colon = tested on: COLO 205 colon
OVCAR-8 ovarian = tested on: OVCAR-8 ovarian
NCI/ADR-RES ovarian = tested on: NCI/ADR-RES ovarian

Row | Compound | TGI (NCI-H460 lung) [µM] | TGI (UO-31 renal) [µM] | TGI (CCRF-CEM leukemia) [µM] | TGI (OVCAR-4 ovarian) [µM] | TGI (SK-MEL-2 melanoma) [µM] | TGI (NCI-H522 lung) [µM] | TGI (LOX IMVI melanoma) [µM] | TGI (COLO 205 colon) [µM] | TGI (OVCAR-8 ovarian) [µM] | GI50 (NCI-H460 lung) [µM] | GI50 (UO-31 renal) [µM] | GI50 (NCI/ADR-RES ovarian) [µM] | TGI (NCI/ADR-RES ovarian) [µM] | GI50 (OVCAR-4 ovarian) [µM] | GI50 (SK-MEL-2 melanoma) [µM] | GI50 (NCI-H522 lung) [µM] | GI50 (LOX IMVI melanoma) [µM] | GI50 (COLO 205 colon) [µM] | GI50 (OVCAR-8 ovarian) [µM] | GI50 (CCRF-CEM leukemia) [µM]
1 | CCOC(=O)C(Cc1ccccc1)NC(=O)c1[nH]cnc1/N=N/N(C)C (stereo not drawn) | > 100 | > 100 | > 100 | > 100 | > 100 | > 100 | > 100 | > 100 | > 100 | – | – | – | – | – | – | – | – | – | – | –
2 | C/C(CC(=O)Nc1ccccc1C)=N/NS(=O)(=O)c1ccc(C)cc1 | > 100 | > 100 | > 100 | – | > 100 | > 100 | > 100 | > 100 | > 100 | – | – | – | – | – | – | – | – | – | – | –
3 | COc1ccc2c(c1)NC1(O)c3ccccc3C(=O)C21O (stereo not drawn) | > 100 | > 100 | > 100 | – | – | > 100 | > 100 | > 100 | > 100 | – | – | – | – | – | – | – | – | – | – | –
4 | O=S(=O)(N=NC=C1c2ccccc2N(O)c2ccccc21)c1ccc(Cl)cc1 | > 100 | > 100 | > 100 | > 100 | > 100 | > 100 | > 100 | > 100 | > 100 | – | – | – | – | – | – | – | – | – | – | –
5 | CN(C)CCCC1(c2ccc(F)cc2)OCc2cc(-c3cc4ccccc4s3)ccc21 (stereo not drawn) | 3.67 | 2.49 | – | 3.52 | 3.46 | 3.28 | 3.13 | 2.74 | 3.25 | 1.93 | 1.24 | 1.74 | 3.25 | 1.94 | 1.8 | 1.7 | 1.64 | 1.34 | 1.72 | –
6 | Cc1ccc(S(=O)(=O)C2=c3nc4ccccc4cc3=C3C(=O)c4ccccc4C(=O)C32)cc1 (stereo not drawn) | > 100 | > 100 | > 100 | > 100 | > 100 | > 100 | > 100 | > 100 | > 100 | – | – | – | – | – | – | – | – | – | – | –
7 | Cc1c(Cl)cccc1NC(=O)/C=C/c1ccccc1 | > 100 | – | > 100 | > 100 | > 100 | > 100 | > 100 | > 100 | > 100 | – | – | – | – | – | – | – | – | – | – | –
8 | N#C/C(=N\Nc1ccccc1)C(=O)Nc1cc(-c2ccccc2)nn1-c1ccccc1 | 22.1 | > 100 | > 100 | 8.95 | 9.94 | 12.6 | – | 4.77 | > 100 | 2.72 | 2.58 | 2.83 | 30.2 | 2.01 | 2.19 | 2.06 | – | 2.17 | 3.25 | 2.5
9 | C=CCC1(C(=O)OC(C)(C)C)C(OC)=C(C(=O)OC(C)(C)C)C2C1C(C(=O)OC(C)(C)C)=C(OC)C2(CC=C)C(=O)OC(C)(C)C (stereo not drawn) | – | > 100 | > 100 | – | > 100 | > 100 | – | > 100 | > 100 | – | – | – | – | – | – | – | – | – | – | –
10 | C1CN(P2(N3CC3)=NP(N3CC3)(N3CC3)=NP(N3CC3)(N3CC3)=N2)CCO1 (stereo not drawn) | > 100 | > 100 | > 100 | > 100 | > 100 | > 100 | > 100 | > 100 | > 100 | – | – | – | – | – | – | – | – | – | – | –
11 | CCOC(=O)C1=C(C)N(NC(N)=O)C2(N)N(NC(N)=O)C(C)=C(C(=O)OCC)C12C(=O)OCC (stereo not drawn) | > 100 | > 100 | – | > 100 | > 100 | > 100 | > 100 | – | > 100 | – | – | – | – | – | – | – | – | – | – | –
